In patent publication US12403114B2, “Cannabinoid acid ester compositions and uses thereof” (EPM (IP), INC., priority 2019, dated 2025):

How the values were obtained:
[1] = tested on: LLCPK1 cells; assay: Cellular lipid accumulation test in renal proximal tubule cells; assay type: cell-based; settings: 3.125-25 μM; cells exposed to a mixture of oleate and palmitate, 24 hr (FIG. 31)
Experimental: To test whether CBDA-ME has the ability to reduce lipid accumulation in renal proximal tubule cells, we have utilized an in vitro model of fat accumulation in LLCPK1 cells. Briefly, LLCPK1 cells were maintained at 37° C. in 5% CO2 in DMEM medium supplemented with 10% FCS, 2 mM 1-glutamine, 1 mM sodium pyruvate, 100 U/mL penicillin and […] streptomycin. Free fatty acids (2:1, molar ratio, oleic and palmitic acids) were mixed with bovine serum albumin (BSA). Cells were incubated with fatty acid-BSA complex in FCS-free culture medium at 0.3 mM final concentration of fatty acid and 1% of BSA. Control cell cultures were incubated with medium containing the vehicle. Compounds were tested in a range of concentrations (as detailed in the results section) in the presence/absence of fatty acids. After 24 hr of incubation with the compounds, the cells were washed, incubated with 1 μg/mL mixture of Nile-Red/Hoechst solution for 15 mins at 37° C. protected from light. Fluorescence was measured by the Cytation-3 plate reader at ex:488 nm/em:550 for Nile-Red and Hoechst, respectively. Results were normalized to total protein levels of each well, and presented as a change in the accumulation of lipids in comparison with Vehicle-treated group.

[2] = target: T1, glucose transporter 2 (GLUT2) (Homo sapiens, UniProt P11168); assay: 2-NBDG glucose uptake in transfected HEK293t cells; assay type: cell-based; settings: 50-0.1 μM tested
T1 construct: expressed in transfected cells; host or cells: HEK293t
T1 sequence (P11168 1-524): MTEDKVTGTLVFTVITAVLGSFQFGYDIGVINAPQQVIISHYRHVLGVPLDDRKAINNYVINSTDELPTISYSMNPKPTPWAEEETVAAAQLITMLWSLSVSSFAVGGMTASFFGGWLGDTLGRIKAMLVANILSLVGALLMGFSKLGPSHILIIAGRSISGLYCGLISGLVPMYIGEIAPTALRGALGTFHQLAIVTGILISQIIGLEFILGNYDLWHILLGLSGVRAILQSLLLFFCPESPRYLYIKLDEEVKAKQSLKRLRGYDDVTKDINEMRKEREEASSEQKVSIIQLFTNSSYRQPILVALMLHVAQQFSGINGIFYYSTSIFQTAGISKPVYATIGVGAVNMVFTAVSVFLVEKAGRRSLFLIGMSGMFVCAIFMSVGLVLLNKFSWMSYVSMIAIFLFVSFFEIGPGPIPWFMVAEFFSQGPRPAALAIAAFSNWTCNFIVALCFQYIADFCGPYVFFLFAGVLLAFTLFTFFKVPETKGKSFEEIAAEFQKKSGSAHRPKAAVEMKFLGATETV
Experimental: In vitro assays for measuring glucose uptake were designed to assess whether EPM-301 and EPM-302 compounds are capable of inhibiting or increasing glucose uptake via glucose transporters (GLUTs).
Transfected HEK293t cells, which express the glucose transporter 2 (GLUT2), were cultured in a 96 well plate and maintained at 37° C. in 5% CO2 in DMEM medium supplemented with 10% FCS, 2 mM 1-glutamine, 1 mM sodium pyruvate, 100 U/mL penicillin, and […] streptomycin for 24 h. The medium was then washed with a choline chloride Na^+-free buffer (CCB), in which only GLUTs (and not the sodium/glucose transporters [SGLTs]) were active. The wells were then added with CCB/CCB+2-NBDG (a fluorescent derivative of glucose). Compounds were tested in a range of concentrations for their ability to inhibit/increase 2-NBDG uptake into the cells. After 1.5 h incubation, cells were washed with CCB and incubated with 1 μg/μL of Hoechst for 15 mins at 37° C. and protected from light. Fluorescence was measured by the Cytation-3 plate reader at ex:485 nm/em:528 nm and ex:350 nm/em:461 nm for 2-NBDG Hoechst, respectively. Results of the 2-NBDG levels were normalized to Hoechst levels of each well, and presented as a change in the uptake of 2-NBDG in comparison with Vehicle-treated group.
Vehicle solution (choline chloride buffer), EPM-301 (50-0.1 μM), and EPM-302 (50-0.1 μM) were used for the experiments.
Values are expressed as mean±SEM. Unpaired two-tailed student's t-test was used to determine the differences between the groups. Significance was set at p<0.05. *versus vehicle; #versus control.

SMILES: C=C(C)[C@@H]1CCC(C)=CC1c1c(O)cc(CCCCC)c(C(=O)OC)c1O (stereo partly drawn) [EPM-301, cannabidiolic acid methyl ester]
- fat accumulation in kidney cells (lipotoxicity) [1]: prevent
- concentration at which the effect on glucose transport was observed [2]: 50 µM
- glucose uptake (2-NBDG) in HEK293 cells ([2]; 1.5 h incubation, versus vehicle (FIG. 36A, 36B)): significantly reduce
